Columns and labels:
[1] = tested on: vascular smooth muscle cells (SMC); conditions: cited from earlier work
[2] = target: thrombin (Homo sapiens, UniProt P00734+P01008); experiment: Thrombin inhibition (fibrin generation in diluted human plasma); format: biochemical; conditions: 0.5 nM thrombin; conjugate on ghosts (@1.43×10^7 ghosts/200 ul)
Procedure: The concentration response for unconjugated anti-coagulant is provided for comparison. Percentage inhibition of thrombin response (y-axis) is recorded as a function of the molar concentration of compound tested (lower x-axis; log scale), and of the number of carrier cells per test sample (upper x-axis; log scale).
To determine whether the anticoagulative properties of the compounds of the invention were retained when coated on the surface of biomembranes, in vitro studies were performed to assess the ability of the compound of invention to inhibit the coagulation enzyme, thrombin. […] Concentration of compound 21 on ghosts was assessed by placing known numbers of ghosts in microtiter plate wells and comparing the observed fluorescence to the fluorescence produced by known standard concentrations of the compound. […] 211:10 (1987), wherein 100 μl a 1:10 dilution of human plasma in phosphate buffered saline (PBS) buffer, 50 μl of PBS containing varying concentrations of labeled ghosts or standard thrombin inhibitor, and 50 μl of PBS containing a constant amount (0.5 nM) of thrombin were added to microtiter plate wells and absorbance changes at 405 nm were recorded in a spectrophotometric plate reader (Bio-Tek) over a 60 minute period. […] The absorbance changes over time data were plotted and area-under-the-curve measurements performed by computer. […]

[3] = tested on: SMC cell surfaces; conditions: cited from earlier work
[4] = tested on: myointimal thickening; conditions: cell culture or animals after arterial injury; cited from earlier work

Chain of thrombin (P01008 33-464, one chain of several): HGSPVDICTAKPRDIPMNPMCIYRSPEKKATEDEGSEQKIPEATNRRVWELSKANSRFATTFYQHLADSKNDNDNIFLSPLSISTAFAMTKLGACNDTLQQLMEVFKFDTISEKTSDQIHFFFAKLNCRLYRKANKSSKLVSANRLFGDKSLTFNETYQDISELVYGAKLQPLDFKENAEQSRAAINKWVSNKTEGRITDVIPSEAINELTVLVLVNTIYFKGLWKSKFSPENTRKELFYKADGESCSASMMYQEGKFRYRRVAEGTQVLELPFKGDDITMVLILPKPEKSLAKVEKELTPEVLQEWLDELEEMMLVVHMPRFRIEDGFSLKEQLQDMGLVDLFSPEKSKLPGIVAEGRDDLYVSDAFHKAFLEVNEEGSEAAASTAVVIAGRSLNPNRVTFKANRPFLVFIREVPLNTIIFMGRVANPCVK

**Q.** Which results are given for Heparin?
**A.** Inhibition of cell growth / antiproliferative activity [1]: inhibit the growth of several different cell types, including vascular smooth muscle cells (SMC); EC50 [2]: 1.03 nM; Binding to SMC cell surfaces [3]: binds to SMC cell surfaces via high affinity binding sites and is taken up intracellularly; Effect of heparin on smooth muscle cells / after arterial injury [4]: decreased growth and reduced myointimal thickening and cell proliferation

Source: US5667764A, “Compounds, compositions and methods for binding bio-affecting substances to surface membranes of bio-particles” (Zynaxis, Inc., priority 1992, dated 1997)
